Measurements published in patent US10342776B2, “Compositions and methods for controlling infections” (priority 2004, dated 2019).

Assays:
Assay type in all cases: cell-based
Aspergillus fungi = test: Mycelium formation on Todd Hewitt agar plates containing GML, Aspergillus; conditions: for mycelium growth on plates: 36 hours, room temperature
Experimental: Organisms (at the spore phase) of Aspergillus and Penicillium fungi obtained from nature were separately streaked on Todd Hewitt agar plates containing various concentrations of GML. The plates were incubated at room temperature for 36 hours after which mycelium growth was determined by direct visual examination. […] In contrast, the organisms grew on plates containing 0 and 50 μg/ml.

[1] = system: Bacteroides fragilis ATCC 25285; test: Kinetics of growth inhibition of Bacteroides fragilis in WC broth with GML, plate colony counting
Experimental: The kinetics of growth-inhibition by GML of the obligate gram negative anaerobe Bacteroides fragilis ATCC 25285 was determined. An overnight culture of B. fragilis ATCC 25285 in Wilkens Chalgren (WC) broth was inoculated into fresh media (WC) to give a starting cell concentration of 1×10^7 cells/ml. […] […] Because growth of B. fragilis was inhibited by GML, it is expected that growth of the related gram negative anaerobe, Prevotella, would also be inhibited by GML.

[2] = system: Gardnerella vaginalis (clinical isolate); test: G. vaginalis liquid culture in dialyzable beef heart medium with GML, colony counting
Experimental: Cells (1.2×10^7/ml in a total volume of 25 ml of dialyzable beef heart medium) of a recent clinical isolate of the gram negative rod Gardnerella vaginalis in vitro were cultured for various lengths of time with various concentrations of GML. At the various time points, the concentration of bacteria in the cultures were determined by colony counting on chocolate agar plates. GML at concentrations as low as 5 μg/ml were bactericidal to G. vaginalis. […] This finding points to the likely efficacy of GML in vivo. Moreover, GML (5 μg/ml or greater) inhibited growth of G. vaginalis plated (0.1 ml at 1.2×10^7/ml) onto chocolate agar plates (Table 3; data obtained after 24 hours of culturing).

[3] = system: Candida albicans (11 clinical isolates, hyphal phase); test: Hyphal phase Candida albicans growth on Todd Hewitt agar plates containing GML; conditions: 48 hours
Experimental: Candida albicans microorganisms were cultured on a Todd Hewitt agar plate for 48 hours at 37° C. in the presence of 7% CO2 to promote growth of hyphal forms. This plate was used to streak the microorganisms for isolation on Todd Hewitt agar plates containing 0, 10, 20, 50, or 100 μg/mL of GML. The plates were incubated for 48 hours and examined for Candida growth. The experiment was done in duplicate plates. The results obtained with duplicate plates were the same.
Organisms (at the hyphal phase) of 11 clinical isolates of Candida albicans were separately streaked on Todd Hewitt agar plates containing various concentrations of GML. The experiments were performed in duplicate. […] In contrast, the organisms grew on plates containing 0, 10 and 20 μg/ml.

Escherichia coli = test: Direct toxicity of GML to Escherichia coli
Source text: Thus, it was surprising to discover that a number of other bacterial genera (see below) were highly sensitive to the direct toxic effects of GML.

CCCCCCCCCCCC(=O)OCC(O)CO (centres unmarked) [GML, glycerol monolaurate]
mycelium growth on plates (Aspergillus fungi; 50 μg/ml GML): grew | colony size on plates (Aspergillus fungi; 50 μg/ml GML, about 4 days compared to 36 hours): larger in size | mycelium growth on plates (Aspergillus fungi; 100 and 500 μg/ml GML): failed to grow | visible colonies on plates (Aspergillus fungi; 100 and 500 μg/ml GML, about 4 days): no visible colonies | Cells/ml ×10^7 at 4.5 hours ([1]; GML 1 μg/ml, 4.5 hours): 16 Cells/ml ×10^7 | Cells/ml ×10^7 at 25 hours ([1]; GML 1 μg/ml): 130 Cells/ml ×10^7 | Cells/ml ×10^7 at 4.5 hours ([1]; GML 10 μg/ml, 4.5 hours): 1.4 Cells/ml ×10^7 | Cells/ml ×10^7 at 25 hours ([1]; GML 10 μg/ml): 150 Cells/ml ×10^7 | Cells/ml ×10^7 at 4.5 hours ([1]; GML 20 μg/ml, 4.5 hours): <0.01 Cells/ml ×10^7 | fold fewer bacteria than the control culture ([1]; GML 20 μg/ml, 4.5 hours): at least 1,000 fold | regrowth of culture ([1]; GML 20 μg/ml, 24 hours): regrowth was observed | Cells/ml ×10^7 at 25 hours ([1]; GML 20 μg/ml): 200 Cells/ml ×10^7 | Cells/ml ×10^7 at 4.5 hours ([1]; GML 50 μg/ml, 4.5 hours): <0.01 Cells/ml ×10^7 | Cells/ml ×10^7 at 25 hours ([1]; GML 50 μg/ml): <10 Cells/ml ×10^7 | Cells/ml ×10^7 at 4.5 hours ([1]; GML 100 μg/ml, 4.5 hours): <0.001 Cells/ml ×10^7 | Cells/ml ×10^7 at 25 hours ([1]; GML 100 μg/ml): <10 Cells/ml ×10^7 | growth of B. fragilis bacteria ([1]; GML 50 and 100 μg/ml): inhibited the growth | Cells/ml (×10^7) at 6 hours ([2]; GML 1 μg/ml): 13 Cells/ml (×10^7) | Cells/ml (×10^7) at 24 hours ([2]; GML 1 μg/ml): 208 Cells/ml (×10^7) | Cells/ml (×10^7) at 6 hours ([2]; GML 5 μg/ml): 0.0002 Cells/ml (×10^7) | Cells/ml (×10^7) at 24 hours ([2]; GML 5 μg/ml): 0.0004 Cells/ml (×10^7) | Cells/ml (×10^7) at 6 hours ([2]; GML 10 μg/ml): <0.000001 Cells/ml (×10^7) | Cells/ml (×10^7) at 24 hours ([2]; GML 10 μg/ml): <0.000001 Cells/ml (×10^7) | Cells/ml (×10^7) at 6 hours ([2]; GML 20 μg/ml): <0.000001 Cells/ml (×10^7) | Cells/ml (×10^7) at 24 hours ([2]; GML 20 μg/ml): <0.000001 Cells/ml (×10^7) | Cells/ml (×10^7) at 6 hours ([2]; GML 50 μg/ml): <0.000001 Cells/ml (×10^7) | Cells/ml (×10^7) at 24 hours ([2]; GML 50 μg/ml): <0.000001 Cells/ml (×10^7) | Cells/ml (×10^7) at 6 hours ([2]; GML 100 μg/ml): <0.000001 Cells/ml (×10^7) | Cells/ml (×10^7) at 24 hours ([2]; GML 100 μg/ml): <0.000001 Cells/ml (×10^7) | Cells/ml (×10^7) at 6 hours ([2]; GML 1000 μg/ml): <0.000001 Cells/ml (×10^7) | Cells/ml (×10^7) at 24 hours ([2]; GML 1000 μg/ml): <0.000001 Cells/ml (×10^7) | GML concentration bactericidal to G. vaginalis ([2]; liquid culture): ≥ 5 µg/mL | growth on agar plates ([3]; 10 and 20 μg/ml GML): grew | growth on agar plates ([3]; 50 and 100 μg/ml GML): failed to grow | resistance to direct toxicity by GML (Escherichia coli): relatively resistant
